Article PMC12632267, “Staphylococcus aureus encodes four differentially regulated pyruvate transporters” (Journal of Bacteriology, 2025)

Columns and labels:
Assay in all cases: […]-pyruvate uptake, filter assay, complemented triple mutant
Format in all cases: cell-based
Details in all cases: 0.5 mM 14C-pyruvate, TSBG, 37 °C; labelled compound
LrgAB = target: T1, LrgAB (Staphylococcus aureus, UniProt Q2FK07+Q2FK08)
T1 construct: gene lrgA; lrgAB operon, untagged; expressed from Pcad::lrgAB (pBK123) in S. aureus JE2 transporter mutants

LctP = target: T2, LctP (Staphylococcus aureus, UniProt A0A0H2XEN8)
T2 construct: full-length 530 aa, untagged; expressed from Pcad::lctP (pBK123) in S. aureus JE2 delta lrgAB/lctP/lldP

LldP = target: T3, LldP (Staphylococcus aureus, UniProt A0A0H2XGA6)
T3 construct: gene SAUSA300_2313; full-length 532 aa, untagged; expressed from Pcad::lldP (pBK123) in S. aureus JE2 delta lrgAB/lctP/lldP
T3 sequence (A0A0H2XGA6 entry or part of it): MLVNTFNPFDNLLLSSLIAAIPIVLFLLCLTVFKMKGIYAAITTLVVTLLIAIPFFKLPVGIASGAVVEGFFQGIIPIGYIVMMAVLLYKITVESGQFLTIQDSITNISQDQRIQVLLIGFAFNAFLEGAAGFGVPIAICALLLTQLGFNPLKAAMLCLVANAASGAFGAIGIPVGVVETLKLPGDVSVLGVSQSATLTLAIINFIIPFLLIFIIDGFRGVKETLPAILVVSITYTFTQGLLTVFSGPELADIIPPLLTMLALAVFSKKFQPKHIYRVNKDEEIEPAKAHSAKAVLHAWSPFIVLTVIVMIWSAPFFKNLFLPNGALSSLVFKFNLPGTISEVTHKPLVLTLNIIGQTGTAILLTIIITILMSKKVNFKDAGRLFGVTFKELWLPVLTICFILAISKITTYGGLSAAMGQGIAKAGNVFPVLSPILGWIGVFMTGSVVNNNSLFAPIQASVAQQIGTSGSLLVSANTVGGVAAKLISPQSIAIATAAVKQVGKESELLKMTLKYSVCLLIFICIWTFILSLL

T2 sequence (A0A0H2XEN8 entry or part of it): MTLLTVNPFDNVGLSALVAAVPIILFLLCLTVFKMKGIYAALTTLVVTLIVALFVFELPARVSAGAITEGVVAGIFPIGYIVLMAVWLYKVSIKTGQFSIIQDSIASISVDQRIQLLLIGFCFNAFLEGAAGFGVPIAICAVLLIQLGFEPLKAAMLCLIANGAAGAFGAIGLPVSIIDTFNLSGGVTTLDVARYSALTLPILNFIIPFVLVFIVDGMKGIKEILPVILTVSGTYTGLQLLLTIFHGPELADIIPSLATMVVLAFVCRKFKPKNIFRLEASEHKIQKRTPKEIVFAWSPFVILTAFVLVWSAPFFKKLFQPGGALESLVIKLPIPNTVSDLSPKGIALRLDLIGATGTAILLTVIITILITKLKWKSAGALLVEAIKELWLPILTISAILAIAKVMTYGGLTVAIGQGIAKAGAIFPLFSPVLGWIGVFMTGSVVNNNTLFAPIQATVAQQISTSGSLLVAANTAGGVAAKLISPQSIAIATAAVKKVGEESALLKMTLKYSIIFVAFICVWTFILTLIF
T1 sequence (Q2FK07 whole entry): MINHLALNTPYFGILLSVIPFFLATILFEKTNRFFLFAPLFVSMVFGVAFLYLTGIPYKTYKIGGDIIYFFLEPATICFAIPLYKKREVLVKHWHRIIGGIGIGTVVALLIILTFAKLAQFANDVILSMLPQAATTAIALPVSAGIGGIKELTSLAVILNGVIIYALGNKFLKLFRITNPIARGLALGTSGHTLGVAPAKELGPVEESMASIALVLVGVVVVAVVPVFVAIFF
T1 sequence (Q2FK08 whole entry): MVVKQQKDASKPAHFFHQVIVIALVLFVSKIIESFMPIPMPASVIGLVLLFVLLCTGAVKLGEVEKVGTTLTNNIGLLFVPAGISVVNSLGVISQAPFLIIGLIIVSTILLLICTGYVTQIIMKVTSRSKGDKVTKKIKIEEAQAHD

With `CC(=O)C(=O)O` [pyruvate] the “14C-pyruvate uptake, filter assay, complemented triple mutant” value (“14C-pyruvate uptake, filter assay” for short) (LrgAB) was “lctP playing the most significant role under these conditions, followed by lldP, and then lrgAB”, the “14C-pyruvate uptake, filter assay” value (LctP) was “all three of the putative pyruvate transporters contribute to pyruvate import, with lctP playing” and the “14C-pyruvate uptake, filter assay” value (LldP) was “lctP playing the most significant role under these conditions, followed by lldP, and then lrgAB”.
